From paper PMC12238723, “Phase I Clinical Trial of CVL218, a Novel PARP1/2 Inhibitor, in Patients with Advanced Solid Tumors” (MedComm, 2025)

Tested on: patients with advanced solid tumors
Assay: Treatment-related adverse events (CTCAE v5.0), phase I dose escalation
Format: in vivo
From the text: This study was a single‐arm, dose‐escalation phase I trial conducted in Sun Yat‐sen University Cancer Center in China. This study assessed CVL218 in patients with histologically or cytologically confirmed advanced solid tumors who were in PD after standard therapeutic regimens or lacked standard treatment options. Inclusion criteria included: age 18–75 years; with at least one measurable and evaluable target lesion per Response Evaluation Criteria in Solid Tumors 1.1 (RECIST 1.1); ECOG performance status of 0 or 1; adequate hematological, renal, cardiac, and hepatic functions and a life expectancy ≥12 weeks. Key exclusion criteria included prior usage of PARP inhibitors; allergic to the research drug or its components; with active, unstable systemic diseases or active, uncontrolled infection; a history of other malignancies within 5 years, and pregnant or lactating women.
CVL218 was administered orally, and this dose‐escalation trial included nine dose levels: 100 mg QD (50 mg BID), 200 mg QD (100 mg BID), 400 mg QD (200 mg BID), 700 mg QD (350 mg BID), 1000 mg QD (500 mg BID), 1200 mg QD (600 mg BID), 1400 mg QD (700 mg BID), 1700 mg QD (850 mg BID), and 2000 mg QD (1000 mg BID). Patients enrolled in the study received a single oral dose on the first day, followed by continuous multiple dosing (twice a day taking 12 h apart) after 72 h, with the treatment cycle lasting 4 weeks. The period during which patients received a single dose is designated as cycle 0 (C0), lasting 72 h. After this period, patients begin multiple dosing, referred to as cycle 1 (C1). An initial accelerated titration design was employed for the three lowest dose groups, and the “3+3” design was applied starting with the 300 mg BID cohort.
The primary objectives were to assess safety and tolerability as well as to determine the MTD, DLT, and dose recommended for further study. DLT was defined as any of the following events occurring during cycle 0 (including 72 h wash‐out period after a single dose) and cycle 1 per Common Terminology Criteria for Adverse Events (CTCAE) version 5.0: grade 4 anemia; grade 4 neutropenia; grade 3 neutropenia with fever ≥38.5°C; grade 4 thrombocytopenia; grade 3 thrombocytopenia associated with bleeding; grade ≥2 neurotoxicity; any other grade ≥3 nonhematological toxicities (excluding alopecia). The secondary objectives were to assess the PK and preliminary efficacy of CVL218.
Subjects who received at least one dose of CVL218 with postadministration safety records were included in safety analysis set. Subjects who received at least one dose of CVL218 with at least one evaluable PK parameter were included in PK analysis set. Per‐protocol set were used for efficacy analysis. Descriptive statistics of safety were presented per CTCAE v5.0. The PK parameters T max and T 1/2 were shown as the median (min, max) and mean ± SD, respectively. A two‐sided p < 0.05 was considered to indicate statistical significance. Statistical analysis was performed by using GraphPad prism 8.0.2 and R‐4.3.3.

## CNCc1ccc(-c2cc3cc(F)cc(C(N)=O)c3o2)cc1.Cl [CVL218]
600 mg BID, ≥G3
  Abdominal distension: 0 n (%)
  Abdominal pain: 0 n (%)
  Abdominal pain upper: 0 n (%)
  Amylase increased: 0 n (%)
  Anemia: 0 n (%)
  Any AE related to study drug: 1 (25.0) n (%)
  Asthenia: 0 n (%)
  Blood system disorders: 0 n (%)
  Blood triglycerides increased: 0 n (%)
  Cardiac disorders: 0 n (%)
  Chest discomfort: 0 n (%)
  Constipation: 0 n (%)
  Decreased appetite: 0 n (%)
  Diarrhea: 0 n (%)
  Dizziness: 0 n (%)
  Erectile dysfunction: 0 n (%)
  Gastrointestinal disorders: 0 n (%)
  General disorders: 0 n (%)
  Gingival bleeding: 0 n (%)
  Granulocyte count increased: 0 n (%)
  Headache: 0 n (%)
  Hypoalbuminemia: 0 n (%)
  Infusion site pain: 0 n (%)
  Limb discomfort: 0 n (%)
  Lipase increased: 0 n (%)
  Metabolic disorders: 0 n (%)
  Musculoskeletal discomfort: 0 n (%)
  Musculoskeletal disorders: 0 n (%)
  Nausea: 0 n (%)
  Nervous system disorders: 0 n (%)
  Neutrophil count decreased: 0 n (%)
  Neutrophil count increased: 0 n (%)
  Palpitations: 0 n (%)
  Protein urine present: 0 n (%)
  Proteinuria: 0 n (%)
  Rash: 0 n (%)
  Renal & urinary disorders: 0 n (%)
  Renal failure: 0 n (%)
  Reproductive disorders: 0 n (%)
  Skin disorders: 0 n (%)
  Urinary occult blood positive: 0 n (%)
  Vomiting: 0 n (%)
  WBC count decreased: 0 n (%)
  WBC count increased: 0 n (%)
700 mg BID, ALL
  Infusion site pain: 0 n (%)
  WBC count increased: 0 n (%)
700 mg BID, ≥G3
  ALT increased: 0 n (%)
  AST increased: 0 n (%)
  Abdominal distension: 0 n (%)
  Abdominal pain: 0 n (%)
  Abdominal pain upper: 0 n (%)
  Amylase increased: 0 n (%)
  Anemia: 0 n (%)
  Any AE related to study drug: 0 n (%)
  Asthenia: 0 n (%)
  Blood creatinine increased: 0 n (%)
  Blood system disorders: 0 n (%)
  Blood triglycerides increased: 0 n (%)
  Blood urea increased: 0 n (%)
  Cardiac disorders: 0 n (%)
  Chest discomfort: 0 n (%)
  Constipation: 0 n (%)
  Decreased appetite: 0 n (%)
  Diarrhea: 0 n (%)
  Dizziness: 0 n (%)
  Erectile dysfunction: 0 n (%)
  Gastrointestinal disorders: 0 n (%)
  General disorders: 0 n (%)
  Gingival bleeding: 0 n (%)
  Granulocyte count increased: 0 n (%)
  Headache: 0 n (%)
  Hypoalbuminemia: 0 n (%)
  Infusion site pain: 0 n (%)
  Laboratory test disorders: 0 n (%)
  Limb discomfort: 0 n (%)
  Lipase increased: 0 n (%)
  Metabolic disorders: 0 n (%)
  Musculoskeletal discomfort: 0 n (%)
  Musculoskeletal disorders: 0 n (%)
  Nausea: 0 n (%)
  Nervous system disorders: 0 n (%)
  Neutrophil count decreased: 0 n (%)
  Neutrophil count increased: 0 n (%)
  Palpitations: 0 n (%)
  Protein urine present: 0 n (%)
  Proteinuria: 0 n (%)
  Rash: 0 n (%)
  Renal & urinary disorders: 0 n (%)
  Renal failure: 0 n (%)
  Reproductive disorders: 0 n (%)
  Skin disorders: 0 n (%)
  Urinary occult blood positive: 0 n (%)
  Vomiting: 0 n (%)
  WBC count decreased: 0 n (%)
  WBC count increased: 0 n (%)
850 mg BID, ALL
  Infusion site pain: 0 n (%)
  WBC count increased: 1 (20.0) n (%)
850 mg BID, ≥G3
  ALT increased: 0 n (%)
  AST increased: 0 n (%)
  Abdominal distension: 0 n (%)
  Abdominal pain: 1 (20) n (%)
  Abdominal pain upper: 0 n (%)
  Amylase increased: 0 n (%)
  Anemia: 0 n (%)
  Any AE related to study drug: 2 (40.0) n (%)
  Asthenia: 0 n (%)
  Blood creatinine increased: 2 (40.0) n (%)
  Blood system disorders: 0 n (%)
  Blood triglycerides increased: 0 n (%)
  Blood urea increased: 0 n (%)
  Cardiac disorders: 0 n (%)
  Chest discomfort: 0 n (%)
  Constipation: 0 n (%)
  Decreased appetite: 0 n (%)
  Diarrhea: 0 n (%)
  Dizziness: 0 n (%)
  Erectile dysfunction: 0 n (%)
  Gastrointestinal disorders: 1 (20) n (%)
  General disorders: 0 n (%)
  Gingival bleeding: 0 n (%)
  Granulocyte count increased: 0 n (%)
  Headache: 0 n (%)
  Hypoalbuminemia: 0 n (%)
  Infusion site pain: 0 n (%)
  Laboratory test disorders: 2 (40.0) n (%)
  Limb discomfort: 0 n (%)
  Lipase increased: 0 n (%)
  Metabolic disorders: 0 n (%)
  Musculoskeletal discomfort: 0 n (%)
  Musculoskeletal disorders: 0 n (%)
  Nausea: 0 n (%)
  Nervous system disorders: 0 n (%)
  Neutrophil count decreased: 0 n (%)
  Neutrophil count increased: 0 n (%)
  Palpitations: 0 n (%)
  Protein urine present: 0 n (%)
  Proteinuria: 0 n (%)
  Rash: 0 n (%)
  Renal & urinary disorders: 0 n (%)
  Renal failure: 0 n (%)
  Reproductive disorders: 0 n (%)
  Skin disorders: 0 n (%)
  Urinary occult blood positive: 0 n (%)
  Vomiting: 0 n (%)
  WBC count decreased: 0 n (%)
  WBC count increased: 0 n (%)
All (N = 26), ALL
  ALT increased: 4 (15.4) n (%)
  AST increased: 2 (7.7) n (%)
  Abdominal distension: 1 (3.8) n (%)
  Abdominal pain: 1 (3.8) n (%)
  Abdominal pain upper: 1 (3.8) n (%)
  Amylase increased: 2 (7.7) n (%)
  Anemia: 2 (7.7) n (%)
  Any AE related to study drug: 26 (100) n (%)
  Asthenia: 2 (7.7) n (%)
  Blood creatinine increased: 5 (19.2) n (%)
  Blood system disorders: 2 (7.7) n (%)
  Blood triglycerides increased: 1 (3.8) n (%)
  Blood urea increased: 1 (3.8) n (%)
  Cardiac disorders: 1 (3.8) n (%)
  Chest discomfort: 2 (7.7) n (%)
  Constipation: 2 (7.7) n (%)
  Decreased appetite: 5 (19.2) n (%)
  Diarrhea: 10 (38.5) n (%)
  Dizziness: 3 (11.5) n (%)
  Erectile dysfunction: 1 (3.8) n (%)
  Gastrointestinal disorders: 24 (92.3) n (%)
  General disorders: 4 (15.4) n (%)
  Gingival bleeding: 1 (3.8) n (%)
  Granulocyte count increased: 1 (3.8) n (%)
  Headache: 2 (7.7) n (%)
  Hypoalbuminemia: 2 (7.7) n (%)
  Infusion site pain: 1 (3.8) n (%)
  Laboratory test disorders: 15 (57.7) n (%)
  Limb discomfort: 1 (3.8) n (%)
  Lipase increased: 6 (23.1) n (%)
  Metabolic disorders: 6 (23.1) n (%)
  Musculoskeletal discomfort: 1 (3.8) n (%)
  Musculoskeletal disorders: 1 (3.8) n (%)
  Nausea: 20 (76.9) n (%)
  Nervous system disorders: 4 (15.4) n (%)
  Neutrophil count decreased: 1 (3.8) n (%)
  Neutrophil count increased: 2 (7.7) n (%)
  Palpitations: 1 (3.8) n (%)
  Protein urine present: 1 (3.8) n (%)
  Proteinuria: 6 (23.1) n (%)
  Rash: 3 (11.5) n (%)
  Renal & urinary disorders: 7 (26.9) n (%)
  Renal failure: 3 (11.5) n (%)
  Reproductive disorders: 1 (3.8) n (%)
  Skin disorders: 3 (11.5) n (%)
  Urinary occult blood positive: 1 (3.8) n (%)
  Vomiting: 20 (76.9) n (%)
  WBC count decreased: 1 (3.8) n (%)
  WBC count increased: 2 (7.7) n (%)
All (N = 26), ≥G3
  ALT increased: 0 n (%)
  AST increased: 0 n (%)
  Abdominal distension: 0 n (%)
  Abdominal pain: 1 (3.8) n (%)
  Abdominal pain upper: 0 n (%)
  Amylase increased: 0 n (%)
  Anemia: 0 n (%)
  Any AE related to study drug: 4 (15.4) n (%)
  Asthenia: 0 n (%)
  Blood creatinine increased: 3 (11.5) n (%)
  Blood system disorders: 0 n (%)
  Blood triglycerides increased: 0 n (%)
  Blood urea increased: 1 (3.8) n (%)
  Cardiac disorders: 0 n (%)
  Chest discomfort: 0 n (%)
  Constipation: 0 n (%)
  Decreased appetite: 0 n (%)
  Diarrhea: 0 n (%)
  Dizziness: 0 n (%)
  Erectile dysfunction: 0 n (%)
  Gastrointestinal disorders: 1 (3.8) n (%)
  General disorders: 0 n (%)
  Gingival bleeding: 0 n (%)
  Granulocyte count increased: 0 n (%)
  Headache: 0 n (%)
  Hypoalbuminemia: 0 n (%)
  Infusion site pain: 0 n (%)
  Laboratory test disorders: 4 (15.4) n (%)
  Limb discomfort: 0 n (%)
  Lipase increased: 1 (3.8) n (%)
  Metabolic disorders: 0 n (%)
  Musculoskeletal discomfort: 0 n (%)
  Musculoskeletal disorders: 0 n (%)
  Nausea: 0 n (%)
  Nervous system disorders: 0 n (%)
  Neutrophil count decreased: 0 n (%)
  Neutrophil count increased: 0 n (%)
  Palpitations: 0 n (%)
  Protein urine present: 0 n (%)
  Proteinuria: 0 n (%)
  Rash: 0 n (%)
  Renal & urinary disorders: 0 n (%)
  Renal failure: 0 n (%)
  Reproductive disorders: 0 n (%)
  Skin disorders: 0 n (%)
  Urinary occult blood positive: 0 n (%)
  Vomiting: 0 n (%)
  WBC count decreased: 0 n (%)
  WBC count increased: 0 n (%)
All 26 patients
  TRAE of any grade: diarrhea: 38.5%
  TRAE of any grade: lipase increased: 23.1%
  TRAE of any grade: nausea: 76.9%
  TRAE of any grade: proteinuria: 23.1%
  TRAE of any grade: vomiting: 76.9%
  patients with ≥grade 3 TRAEs: 15.4%
  ≥grade 3 TRAE: abdominal pain: 3.8%
In vivo
  anemia of grade 3 or more severe: None of the anemias were of grade 3 or more severe
  grade ≥3 gastrointestinal AEs: 3.8%
  patients with gastrointestinal reactions: 92.3%
  ≥grade 3 TRAE: blood creatinine increased: 11.5%
  ≥grade 3 TRAE: blood urea increased: 3.8%
  ≥grade 3 TRAE: lipase increased: 3.8%
